{"source": "patent US6569449B1", "about": "“Transdermal delivery of opioid antagonist prodrugs” (University of Kentucky Research Foundation, priority 2000, dated 2003)", "key": {"[1]": {"test": "Solubilities in light mineral oil and pH 7.4 isotonic phosphate buffer", "type": "physicochemical", "conditions": "thermodynamic from solid, 32° C., 48 hours equilibration", "description": "The solubilities of naltrexone and its esters were obtained by equilibrating large excesses of each substance with the respective vehicle, light mineral oil, or pH 7.4 isotonic phosphate buffer at 32° C. To hasten the attainment of equilibrium, each slurry was continuously shaken in a sealed container in a shaking incubation oven. Samples were taken, filtered (mineral oil:Millex FG-13, Millipore and buffer:glass microfiber, Gelman) above 32° C., measured with respect to volume, and diluted with the appropriate amount of acetonitrile. The diluted samples were analyzed by HPLC. The initial forty percent of each filtrate was discarded to eliminate the possibility that adsorption of drug on the filter and/or the filtering apparatus might influence the solubility determination. The sampling procedure was repeated at least once for each sample. […] Therefore, the equilibration times for all the studies were 48 hours."}, "[2]": {"test": "Octanol/water partition coefficients", "type": "physicochemical", "conditions": "octanol/pH 7.4 isotonic phosphate buffer, room temperature; read-out: Experimental log P", "description": "The octanol/water partition coefficients were determined using pH 7.4 isotonic phosphate buffer as the aqueous phase. All steps were carried out at room temperature. An appropriate amount of drug was weighed into a vial and dissolved in a known amount of octanol. An equivalent amount of buffer was then added to the vial and the phases shaken for 24 hours. The vials were left undisturbed for at least one hour after shaking. An exact volume was taken from the aqueous phase, diluted with acetonitrile, and then analyzed by HPLC. The final pH of the aqueous phase at the end of the shaking period was 7.95. Similarly, an exact volume was taken from the octanol phase, diluted with acetonitrile, and then analyzed by HPLC. Partition coefficients were calculated by determining the phase concentration ratios."}}, "note": "Read-outs that look alike come from different tables or passages of the source.", "data": [{"compound": "O=C1CC[C@@]2(O)[C@H]3Cc4ccc(O)c5c4[C@@]2(CCN3CC2CC2)[C@H]1O5", "note": "[NTX, Naltrexone]", "values": [{"measurement": "solubility at 48 h", "setting": "[1]; aqueous buffer, pH 7.4 isotonic phosphate buffer, read-out: Phosphate Buffer Solubility pH 7.4 32° C.", "result": 15.2, "unit": "mM"}, {"measurement": "solubility at 48 h", "setting": "[1]; oil or lipid, light mineral oil, read-out: Light Mineral Oil Solubility 32° C.", "result": 0.258, "unit": "mM"}, {"measurement": "logP at 24 h", "setting": "[2]", "result": 0.67}]}]}
